{"source": "paper PMC6097783", "about": "“β-N-Acetylglucosaminidase MthNAG from Myceliophthora thermophila C1, a thermostable enzyme for production of N-acetylglucosamine from chitin” (Applied Microbiology and Biotechnology, 2018)", "molecules": {"B1": {"name": "MthNAG (Thermothelomyces thermophilus ATCC 42464) (protein)", "chain": "IWPAPQSLTTGSSVLYLNQNIKVTYNGESIPYTYGYVSRELTSKEVVQAGISRTLAGIFESKFVPWKLHKRGSKWEPDLSQGQQWIKTLEIVQKGKDEPSTFKPLAGQVDESYNLTVSAKGEAKLAAVSSIGVLRGLETFSQLFYQHSAGTFWYTPFAPVSVQDAPKFPHRGVLIDTARNFLPVADILRTIDAMAWSKLNRLHVHVTDSQSWPLVIPSLPEVSEKGAYHPSQTYSPEDVEKIQTYGAERGVEVYFEIDMPGHIGVVSLSHPELIVAYNLQPYQWWCQEPPCGAFKLNNTAVDAFLDKLFDDLLPRLAPYSAYFHTGGDELNRNDSMLDEGIRSNDTEVLRPLLQKFIDKQHARVRAAGLTPITWEEIPLEWEVDMAKDTVVQSWLGGDAVKTLTSKGYQVIDSNYNFWYLDCGRGQWLTWGNGAAFAQGYPFNDWCGPTKSWQLVYQHDPTAGLTAEEAKLVLGGEVALWAETIDPVNLDTLAWPRASAVGEALWSGRIDPATGQNRSLVEAAPRLNEFRERLVARGVGASPIQMTFCTQGRAEECEFIVA", "notes": "full-length GH20 secreted enzyme, 582-residue precursor with 21-residue signal peptide; homologously overexpressed in M. thermophila C1, purified by IEX and SEC, no tag told; most similar to XP_003658680 of strain ATCC 42464"}}, "key": {"[1]": {"target": "T1, MthNAG (Thermothelomyces thermophilus, UniProt G2Q2L6)", "T1 construct": "gene MYCTH_2294755; full-length GH20 secreted enzyme, 582-residue precursor with 21-residue signal peptide; homologously overexpressed in M. thermophila C1, purified by IEX and SEC, no tag told; most similar to XP_003658680 of strain ATCC 42464", "T1 sequence (G2Q2L6 22-582)": "B1 chain", "test": "substrate inhibition kinetics, released GlcNAc by HPAEC", "format": "biochemical", "details": "citrate-phosphate buffer 0.1 M, pH 4.5, 50 °C"}, "[2]": {"target": "T1, MthNAG", "test": "substrate inhibition kinetics, released p-nitrophenol at […] nm", "format": "biochemical", "details": "citrate-phosphate buffer 0.1 M, pH 4, 50 °C"}, "[3]": {"substrate": "CC(=O)N[C@H]1[C@H](Oc2ccc([N+](=O)[O-])cc2)O[C@H](CO)[C@@H](O)[C@@H]1O", "test": "purified protein", "format": "biochemical, Thermothelomyces thermophilus", "details": "citrate-phosphate buffer 0.1 M, pH 4, 50 °C"}}}
{"molecule": "CC(=O)N[C@H]1[C@H](O[C@H]2[C@H](O)[C@@H](NC(C)=O)C(O)O[C@@H]2CO)O[C@H](CO)[C@@H](O)[C@@H]1O", "note": "(stereo partly shown) [(GlcNAc)2]", "values": [{"measurement": "Ki", "setting": "[1]", "value": "500 ± 110", "unit": "µM"}]}
{"molecule": "CC(=O)N[C@H]1[C@H](Oc2ccc([N+](=O)[O-])cc2)O[C@H](CO)[C@@H](O)[C@@H]1O", "note": "[GlcNAc-pNP, 4-nitrophenyl-N-acetylglucosamine]", "values": [{"measurement": "Ki", "setting": "[2]", "value": "1960 ± 260", "unit": "µM"}]}
{"molecule": "B1", "values": [{"measurement": "Km", "setting": "[3]", "value": "60 ± 10", "unit": "µM"}, {"measurement": "kcat", "setting": "[3]", "value": "14.0 ± 0.7", "unit": "s⁻¹"}]}
